Measured values taken from patent US12599657B2 (priority 2020, dated 2026).
Where two headings read alike, the source gives them in different places.

Assays:
[1] = system: E. acervulina, E. maxima, and E. tenella; assay: First Study: broiler performance (feed intake, FCR, weight gain, mortality) under coccidia challenge; assay type: in vivo; conditions: Cocci Vaccine alone
Method: (§1) Testing in all three studies set forth below was undertaken using a high oocyst dose vaccine, Coccivac-B52 (trademark, Intervet Inc.), a product sold by Merck Animal Health. According to the manufacturer, Coccivac-B52 contains E. acervulina, E. maxima, E. mivati, and E. tenella. The vaccine was mixed with water at a dosage of 240 ml of water per 1,000 doses. The vaccine-water combination was placed in a sealed vaccine container and mixed by stirring and inversion of the container. The mixed vaccine-water combination was sprayed onto each chick when one day old in a conventional spray cabinet. It was estimated that each chick ingested an equal number of droplets so as to result in the ingestion of about 240 μL dose per chick.
The rations consisted of non-medicated commercial-type broiler starter, grower, and finisher diets compounded according to NRC guidelines and contained feedstuffs commonly used in the United States. As a common regime rations for some but not necessarily all studies were fed ad libitum from date of chick arrival as follows: Starter—DOT 0 until DOT 14, grower DOT 14 to DOT 28, and finisher from DOT 28 to DOT 42 (study termination).
Diets were fed as crumbles in starter and pellets in grower and finisher. Experimental treatment feeds were prepared from a basal feed formulation. Quantities of all basal feed and test articles included in treatment group batches were documented and included with source data files. Treatment feeds were mixed prior to pelleting to assure uniform distribution of respective test articles.
Fifteen hundred birds (1,500) were assigned to six (6) treatment groups with ten (10) replicate pens per treatment and 25 birds per pen. The study began when birds were placed (day-of-hatch; DOT 0), at which time birds were allocated to experimental pens. Only healthy birds were selected. On DOT 0, group body weights were recorded by pen. No birds were replaced during the course of the study.
Birds received treatment-appropriate feed from day 0 to day 42. On day 14, remaining starter feed was removed, weighed, and replaced with grower feed to day 28. On day 28, the remaining grower feed was removed, weighed back, and replaced with finisher feed to day 42.
On Day 42, the trial was terminated.

[2] = system: E. acervulina, E. maxima, and E. tenella; assay: First Study: average coccidia lesion score; assay type: in vivo, broiler; conditions: DOT 26, Johnson and Reid 0 to 4 score, Salinomycin 60 gms/ton No Vaccine, Cocci Vaccine alone
[3] = system: E. acervulina, E. maxima, and E. tenella; assay: First Study: total oocysts per gram of feces; assay type: in vivo, broiler; conditions: feces on DOT 26, Salinomycin 60 gms/ton No Vaccine, Cocci Vaccine alone
[4] = system: E. acervuline, E. maxima, and E. tenella; assay: Third Study: broiler performance (feed intake, FCR, weight gain, mortality) under coccidia challenge; assay type: in vivo, male broiler chicks; conditions: Disclosed compound 1.0/1.0/0.5 lb/ton with Vacc
Method: as §1
Rations consisted of non-medicated commercial-type broiler starter, grower, and finisher diets compounded according to NRC guidelines and contain feedstuffs commonly used in the United States. Day-of-hatch male broiler chicks were utilized in the study. Rations were fed ad libitum from date of chick arrival as follows: Starter—day 0 until day 14, grower day 14 to day 28, and finisher from day 28 to day 42 (the end date of the study). Coccidia vaccination for treatments 4 and 5 only.
One thousand five hundred birds (1,500) were randomly assigned to 5 treatment groups with 12 replicate pens per treatment and 25 birds per pen. The study began when birds were placed (day-of-hatch; DAY 0), at which time birds were allocated to experimental pens. On day 0, group body weights were recorded by pen. No birds were replaced during the course of the study.
All birds were weighed by pen on days 0, 14, 28, and 42. Feed added to each pen's feeder was weighed at the beginning of each formulation period on day 0 (starter), day 14 (grower), and day 28 (finisher). Feed was distributed as needed to feeders from pre-weighed bags assigned to each pen throughout each period. Feed remaining in feeders was weighed and disposed of on days 14, 28, and 42. The trial was terminated on day 42.

[5] = system: E. acervulina, E. maxima, and E. tenella; assay: Third Study: average coccidia lesion score; assay type: in vivo, male broiler chicks; conditions: Day 26, 0 to 4 score, Salinomycin 60 g/ton No Vacc, Disclosed compound 1.0/1.0/0.5 lb/ton with Vacc
[6] = system: E. acervulina, E. maxima, and E. tenella; assay: Third Study: total oocysts per gram of feces; assay type: in vivo, male broiler chicks
[7] = system: E. acervulina; conditions: First Study; DOT 26; Johnson and Reid 0 to 4 score; Salinomycin 60 gms/ton No Vaccine; Cocci Vaccine alone
[8] = system: E. maxima; conditions: First Study; DOT 26; Johnson and Reid 0 to 4 score; Salinomycin 60 gms/ton No Vaccine; Cocci Vaccine alone
[9] = system: E. tenella; conditions: First Study; DOT 26; Johnson and Reid 0 to 4 score; Salinomycin 60 gms/ton No Vaccine; Cocci Vaccine alone
[10] = system: E. acervulina; conditions: First Study; feces on DOT 26; Salinomycin 60 gms/ton No Vaccine; Cocci Vaccine alone
[11] = system: E. maxima; conditions: First Study; feces on DOT 26; Salinomycin 60 gms/ton No Vaccine; Cocci Vaccine alone
[12] = system: E. tenella; conditions: First Study; feces on DOT 26; Salinomycin 60 gms/ton No Vaccine; Cocci Vaccine alone
[13] = system: E. acervulina; conditions: Third Study; Day 26; 0 to 4 score; Salinomycin 60 g/ton No Vacc; Disclosed compound 1.0/1.0/0.5 lb/ton with Vacc
[14] = system: E. maxima; conditions: Third Study; Day 26; 0 to 4 score; Salinomycin 60 g/ton No Vacc; Disclosed compound 1.0/1.0/0.5 lb/ton with Vacc
[15] = system: E. tenella; conditions: Third Study; Day 26; 0 to 4 score; Salinomycin 60 g/ton No Vacc; Disclosed compound 1.0/1.0/0.5 lb/ton with Vacc
[16] = system: E. acervulina; conditions: Third Study; feces Day 26; Salinomycin 60 g/ton No Vacc; Disclosed compound 1.0/1.0/0.5 lb/ton with Vacc
[17] = system: E. maxima; conditions: Third Study; feces Day 26; Salinomycin 60 g/ton No Vacc; Disclosed compound 1.0/1.0/0.5 lb/ton with Vacc
[18] = system: E. tenella; conditions: Third Study; feces Day 26; Salinomycin 60 g/ton No Vacc; Disclosed compound 1.0/1.0/0.5 lb/ton with Vacc
[19] = system: E. acervuline, E. maxima, and E. tenella; assay: Third Study: broiler performance (feed intake, FCR, weight gain, mortality) under coccidia challenge; assay type: in vivo, male broiler chicks; conditions: Day 0 to 41, challenge day 21, Salinomycin 60 g/ton No Vacc, Disclosed compound 1.0/1.0/0.5 lb/ton with Vacc
[20] = Day 0 to 14, cocci challenge Day 20, Salinomycin 60 gms/ton No Vaccine
[21] = Day 0 to 28, cocci challenge Day 20, Salinomycin 60 gms/ton No Vaccine
[22] = Day 0 to 42, cocci challenge Day 20, Salinomycin 60 gms/ton No Vaccine
[23] = Day 0 to 14, challenge day 21, Salinomycin 60 g/ton No Vacc
[24] = Day 0 to 28, challenge day 21, Salinomycin 60 g/ton No Vacc

`CC[C@@H](C(=O)[C@@H](C)[C@@H](O)[C@H](C)[C@@H]1O[C@@H]([C@@H](CC)C(=O)O)CC[C@@H]1C)[C@H]1O[C@]2(C=C[C@@H](O)[C@]3(CC[C@@](C)([C@H]4CC[C@](O)(CC)[C@H](C)O4)O3)O2)[C@H](C)C[C@@H]1C` [Salinomycin] was tested, and the “Adjusted FCR (feed conversion ratio adjusted for mortality)” value [1, 20] was 1.58A, the “Feed Intake” value [1, 20] was 11.48A and the “Non-Adjusted FCR” value [1, 20] was 1.60A. The “Weight Gain” value [1, 20] was 0.31B kg, the “Adjusted FCR (feed conversion ratio adjusted for mortality)” value [1, 21] was 1.64B and the “Feed Intake” value [1, 21] was 38.69C. The “Non-Adjusted FCR” value [1, 21] was 1.78AB, the “Weight Gain” value [1, 21] was 1.01B kg and the “Adjusted FCR (feed conversion ratio adjusted for mortality)” value [1, 22] was 1.67B. The “Cocci Percent Mortality” value [1, 22] was 8.40A Percent, the “Feed Intake” value [1, 22] was 80.16B and the “Non-Adjusted FCR” value [1, 22] was 1.81AB. For the same compound, the “Percent Mortality” value [1, 22] was 18.00A Percent, the “Weight Gain” value [1, 22] was 2.39AB kg and the “Mean Coccidia Lesion Score, Average” value [2] was 1.97BC. The “Total OPG” value [3] was 52866AB oocysts per gram, the “Adjusted FCR (FCR adjusted for mortality)” value [4, 23] was 1.41A and the “Feed Intake” value [4, 23] was 12.09A. The “Non-Adjusted FCR” value [4, 23] was 1.42A, the “Weight Gain” value [4, 23] was 0.34B kg and the “Adjusted FCR (FCR adjusted for mortality)” value [4, 24] was 1.50AB. For the same compound, the “Feed Intake” value [4, 24] was 44.75B, the “Non-Adjusted FCR” value [4, 24] was 1.51B and the “Weight Gain” value [4, 24] was 1.20B kg. The “Mean Coccidia Lesion Score, Average” value [5] was 2.04AB, the “count of oocysts among groups” value ([6]; day of feces collection (day 27)) was “highest count of oocysts” and the “Total OPG” value ([6]; feces Day 26, Salinomycin 60 g/ton No Vacc, Disclosed compound 1.0/1.0/0.5 lb/ton with Vacc) was 55,117A oocysts per gram. For the same compound, the “Mean Coccidia Lesion Score, E. acervulina” value [7] was 1.80BC, the “Mean Coccidia Lesion Score, E. maxima” value [8] was 1.93A and the “Mean Coccidia Lesion Score, E. tenella” value [9] was 2.17AB. The “OPG A” value [10] was 49418AB oocysts per gram, the “OPG M” value [11] was 2615A oocysts per gram and the “OPG T” value [12] was 834A oocysts per gram. For the same compound, the “Mean Coccidia Lesion Score, E. acervulina” value [13] was 2.31A, the “Mean Coccidia Lesion Score, E. maxima” value [14] was 1.78AB and the “Mean Coccidia Lesion Score, E. tenella” value [15] was 2.03AB. The “OPG A” value [16] was 23,995A oocysts per gram, the “OPG M” value [17] was 9,666A oocysts per gram and the “OPG T” value [18] was 21,455A oocysts per gram. For the same compound, the “Adjusted FCR (FCR adjusted for mortality)” value [19] was 1.60AB, the “Cocci Percent Mortality” value [19] was 0.00A Percent and the “Feed Intake” value [19] was 92.63B. For the same compound, the “Non-Adjusted FCR” value [19] was 1.61BC, the “Percent Mortality” value [19] was 1.33B Percent and the “Weight Gain” value [19] was 2.49BC kg. For the same compound, the “Percent Mortality” value ([19]; listed as salinomycin) was 1.33%.
